Measured values taken from ChEMBL document CHEMBL1150231, “New sesquiterpene carbonimidic dichlorides and related compounds from the sponge Stylotella aurantium” (J Nat Prod, 2001).

Legend:
Format in all cases: functional, cell-based
SK-MEL-28 = experiment: Cytotoxicity against human SK-MEL-28 cells
A549 = experiment: Cytotoxicity against human A549 cells
P388 = experiment: Cytotoxicity against mouse P388 cells
HT-29 = experiment: Cytotoxicity against human HT-29 cells

Measured: IC50

CC1(C)[C@@H](Cl)[C@@H](O)C[C@]2(C)C/C(=C\C=O)CC[C@@H]12
0.1 µg/mL: all assays above

C=C(CC[C@@H]1C(=C)CC[C@H](Cl)C1(C)C)C(Cl)CN=C(Cl)Cl (some centres not stated)
0.1 µg/mL: all assays above

CC1(C)[C@@H](Cl)[C@@H](O)C[C@]2(C)C/C(=C/C=O)CC[C@@H]12
0.1 µg/mL: all assays above
